Assay results as given in PubChem BioAssay (NCI).
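Following 48 hours of exposure in 96-well plates, responses at five concentrations were used to interpolate endpoints linearly. TGI denotes the concentration required for complete inhibition of growth.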

Key:
Assay in all cases: NCI-60 cell line screen, 48 h
[1] = test system: 786-0 renal
[2] = test system: A498 renal
[3] = test system: A549 NSCLC
[4] = test system: ACHN renal
[5] = test system: BT-549 breast
[6] = test system: CAKI-1 renal
[7] = test system: CCRF-CEM leukemia
[8] = test system: COLO 205 colon
[9] = test system: DU-145 prostate
[10] = test system: EKVX NSCLC
[11] = test system: HCC-2998 colon
[12] = test system: HCT-116 colon
[13] = test system: HCT-15 colon
[14] = test system: HL-60(TB) leukemia
[15] = test system: HOP-62 NSCLC
[16] = test system: HOP-92 NSCLC
[17] = test system: HS 578T breast
[18] = test system: HT29 colon
[19] = test system: IGROV1 ovarian
[20] = test system: KM12 colon
[21] = test system: LOX IMVI melanoma
[22] = test system: M14 melanoma
[23] = test system: MALME-3M melanoma
[24] = test system: MCF7 breast
[25] = test system: MDA-MB-231 breast
[26] = test system: MDA-MB-435
[27] = test system: MDA-N
[28] = test system: NCI-H226 lung
[29] = test system: NCI-H23 lung
[30] = test system: NCI-H460 lung
[31] = test system: NCI-H522 lung
[32] = test system: NCI/ADR-RES ovarian
[33] = test system: OVCAR-3 ovarian
[34] = test system: OVCAR-4 ovarian
[35] = test system: OVCAR-5 ovarian
[36] = test system: OVCAR-8 ovarian
[37] = test system: PC-3 prostate
[38] = test system: RPMI-8226 leukemia
[39] = test system: SF-268 CNS
[40] = test system: SF-295 CNS
[41] = test system: SF-539 CNS
[42] = test system: SK-MEL-2 melanoma
[43] = test system: SK-MEL-28 melanoma
[44] = test system: SK-MEL-5 melanoma
[45] = test system: SK-OV-3 ovarian
[46] = test system: SN12C renal
[47] = test system: SNB-19 CNS
[48] = test system: SNB-75 CNS
[49] = test system: SR leukemia
[50] = test system: SW-620 colon
[51] = test system: T-47D breast
[52] = test system: TK-10 renal
[53] = test system: U251 CNS
[54] = test system: UACC-257 melanoma
[55] = test system: UACC-62 melanoma
[56] = test system: K-562 leukemia
[57] = test system: MOLT-4 leukemia
[58] = test system: RXF 393 renal
[59] = test system: UO-31 renal

Measured: TGI

Cc1ccc(Nc2nc(=O)[nH]c(=O)[nH]2)cc1N
not listed: [56] | [57] | [58] | [59]
> 100 µM: all other assays above

CCOC(=O)CCC(NC(=O)OCc1ccccc1)C(=O)NNC(=O)OC(C)(C)C (stereo not drawn)
not listed: [28]
> 100 µM: all other assays above
